Assay results from ChEMBL document CHEMBL1201862, “PubChem BioAssay data set” (2004).
Activity calls are given as the source filed them.

Experiments:
[1] = target: NAD-dependent protein deacylase sirtuin-5, mitochondrial (Homo sapiens, UniProt Q9NXA8); assay: sirtuin-5 deacylation blockers, concentration series – biochemical, fluorescence imaging, cherry-pick, set 5, dose response (AID 720591);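 also: desuccinylation of succinyl peptide AMC substrate read as fluorescence after trypsin release; potency of inhibitors that lower fluorescence and may act on trypsin instead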
Sequence of NAD-dependent protein deacylase sirtuin-5, mitochondrial (Q9NXA8 whole entry): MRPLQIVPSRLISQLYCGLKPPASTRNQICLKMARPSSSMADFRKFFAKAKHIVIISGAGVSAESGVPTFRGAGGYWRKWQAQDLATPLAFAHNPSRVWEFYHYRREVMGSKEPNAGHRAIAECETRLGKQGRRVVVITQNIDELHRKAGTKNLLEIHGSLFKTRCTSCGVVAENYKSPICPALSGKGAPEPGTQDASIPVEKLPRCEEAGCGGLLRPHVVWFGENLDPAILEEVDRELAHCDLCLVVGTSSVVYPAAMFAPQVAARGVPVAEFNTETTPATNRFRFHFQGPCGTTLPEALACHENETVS

[2] = Luminescence Cell-Based Dose Retest to Confirm Inhibitors of Cancer Stem Cells. [Related pubchem assays (depositor defined):AID2717, AID2721]; type: functional; conditions: Homo sapiens
[3] = target: T1, Heat shock factor protein 1 (Mus musculus, UniProt P38532); assay: enhancement of HSF1-driven luciferase signal – cell-based, NIH3T3, luminescence, dose retest, confirmation (AID 435004); type: functional;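 also: stress induced by proteasome inhibitor MG132 added 30 min after compound; luciferase reporter driven by HSF1 response element in NIH3T3 cells; actives raise luminescence as potentiators of the MG132 stress response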
T1 sequence (P38532 whole entry): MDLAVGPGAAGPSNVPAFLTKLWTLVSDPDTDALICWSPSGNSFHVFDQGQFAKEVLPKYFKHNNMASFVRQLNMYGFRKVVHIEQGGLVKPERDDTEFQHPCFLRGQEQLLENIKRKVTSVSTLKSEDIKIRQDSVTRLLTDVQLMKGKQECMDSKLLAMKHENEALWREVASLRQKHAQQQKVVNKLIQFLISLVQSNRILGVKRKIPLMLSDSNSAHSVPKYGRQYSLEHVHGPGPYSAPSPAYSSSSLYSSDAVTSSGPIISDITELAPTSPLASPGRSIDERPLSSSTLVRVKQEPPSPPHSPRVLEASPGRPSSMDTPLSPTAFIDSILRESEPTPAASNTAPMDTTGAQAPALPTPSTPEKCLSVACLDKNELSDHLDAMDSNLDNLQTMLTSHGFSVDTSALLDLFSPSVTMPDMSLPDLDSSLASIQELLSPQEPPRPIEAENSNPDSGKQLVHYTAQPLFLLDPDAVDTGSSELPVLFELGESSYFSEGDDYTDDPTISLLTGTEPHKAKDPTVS

[4] = potency of ADAM10 substrate cleavage blockers – biochemical, QFRET, dose response (AID 743254);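 also: ADAM10 enzyme with the DM2 quenched FRET peptide as substrate; EDANS fluorescence gain as the protease cuts the substrate; inhibitor potency against ADAM10 proteolytic activity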
[5] = target: Disintegrin and metalloproteinase domain-containing protein 17 (Homo sapiens, UniProt P78536); assay: inhibition of ADAM17 substrate cleavage – biochemical, quenched FRET substrate, counter-screen for ADAM10 exosite inhibitor project, dose response (AID 743253)
Sequence of Disintegrin and metalloproteinase domain-containing protein 17 (P78536 whole entry, the tested form may be a part): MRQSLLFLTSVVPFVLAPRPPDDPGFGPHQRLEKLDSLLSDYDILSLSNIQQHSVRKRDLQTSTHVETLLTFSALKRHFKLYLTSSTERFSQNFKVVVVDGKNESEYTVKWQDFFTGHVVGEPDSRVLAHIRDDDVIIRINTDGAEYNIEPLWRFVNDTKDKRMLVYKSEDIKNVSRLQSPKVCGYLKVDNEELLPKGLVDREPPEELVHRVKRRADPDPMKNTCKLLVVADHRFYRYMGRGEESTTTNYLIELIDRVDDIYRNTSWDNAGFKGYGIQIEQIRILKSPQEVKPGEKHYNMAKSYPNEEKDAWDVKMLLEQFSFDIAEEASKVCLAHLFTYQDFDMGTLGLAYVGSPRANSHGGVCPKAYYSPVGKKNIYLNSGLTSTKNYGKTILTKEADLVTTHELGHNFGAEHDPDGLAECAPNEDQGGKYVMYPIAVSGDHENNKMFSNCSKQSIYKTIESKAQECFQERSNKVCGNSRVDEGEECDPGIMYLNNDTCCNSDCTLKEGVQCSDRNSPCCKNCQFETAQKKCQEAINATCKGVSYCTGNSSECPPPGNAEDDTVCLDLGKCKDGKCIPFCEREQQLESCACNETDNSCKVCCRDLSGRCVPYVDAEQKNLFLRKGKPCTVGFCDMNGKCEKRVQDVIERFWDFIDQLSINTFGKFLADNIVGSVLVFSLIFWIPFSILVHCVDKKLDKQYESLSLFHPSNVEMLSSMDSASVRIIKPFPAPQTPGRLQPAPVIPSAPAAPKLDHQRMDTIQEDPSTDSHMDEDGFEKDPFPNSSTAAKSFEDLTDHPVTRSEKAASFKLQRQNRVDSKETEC

[6] = M. tuberculosis H37Rv growth inhibitors, H37Rv strain (AID 1626); type: functional
[7] = target: Photoreceptor-specific nuclear receptor (Homo sapiens, UniProt Q9Y5X4); type: functional, cell-based;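 also: CHO-S cells with Gal4-NCOR and VP16-NR2E3 two-hybrid luciferase reporter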
Sequence of Photoreceptor-specific nuclear receptor (Q9Y5X4 whole entry, the tested form may be a part): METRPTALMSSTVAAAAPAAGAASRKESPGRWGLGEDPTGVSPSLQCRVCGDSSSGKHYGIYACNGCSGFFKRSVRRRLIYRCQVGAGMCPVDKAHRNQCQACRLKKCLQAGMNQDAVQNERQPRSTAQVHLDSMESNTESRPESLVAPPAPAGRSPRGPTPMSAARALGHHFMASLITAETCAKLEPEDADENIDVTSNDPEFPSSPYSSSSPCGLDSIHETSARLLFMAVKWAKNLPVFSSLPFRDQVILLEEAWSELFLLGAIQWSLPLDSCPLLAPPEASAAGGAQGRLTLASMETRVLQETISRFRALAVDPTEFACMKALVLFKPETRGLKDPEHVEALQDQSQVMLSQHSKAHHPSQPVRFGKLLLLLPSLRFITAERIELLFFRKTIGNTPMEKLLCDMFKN

[8] = Trypanosoma cruzi growth suppression in host cells – NIH3T3 host cells, beta-gal luminescence, confirmation (AID 2044); type: functional, cell-based;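 also: intracellular parasites grown in NIH/3T3 mouse fibroblasts as host cells; luminescent beta-galactosidase reporter signal from transgenic T. cruzi replicating inside host cells; inhibitors lower the luminescence signal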
[9] = NIH3T3 cell viability loss – ATP luminescence, mouse fibroblasts, counter-screen, dose response (AID 2010); type: functional, cell-based;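 also: cells exposed to compound for about 90 hours before reading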
[10] = A549 cell cytotoxicity, dose response, cytotoxicity control, plate reader, cherry-pick, antagonist series (AID 743412); type: functional, cell-based
[11] = toxicity toward HepG2 liver cells – cell-based, plate reader, cherry-pick, antagonist series, cytotoxicity control, dose response (AID 743416); type: functional
[12] = viability loss in HEK293 cells – cell-based, plate reader, cherry-picked samples, cytotoxicity control, dose response (AID 743446); type: functional
[13] = target: T2, Endoribonuclease toxin MazF (Escherichia coli K-12, UniProt P0AE70); assay: activation of MazEF endoribonuclease cleavage – biochemical, fluorescence, single-stranded RNA substrate, uHTS hits, dose response (AID 588481); type: functional
T2 sequence (P0AE70 whole entry): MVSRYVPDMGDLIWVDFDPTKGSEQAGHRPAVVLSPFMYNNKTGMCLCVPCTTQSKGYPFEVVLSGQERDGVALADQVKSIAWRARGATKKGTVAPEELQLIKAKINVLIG

[14] = target: T2, Endoribonuclease toxin MazF; assay: substrate-only fluorescence increase artefacts – biochemical, single-stranded RNase substrate, counter-screen for MazEF activator project, dose response (AID 588502); type: functional
[15] = target: T3, Microphthalmia-associated transcription factor (Homo sapiens, UniProt O75030); assay: reducers of TRPM1 reporter luminescence, concentration series – cell-based, SK-MEL-5, cherry-picked, set 3, MITF inhibitor project, dose response (AID 493073); type: functional;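 also: SK-MEL-5 melanoma cells with luciferase driven by the MITF target TRPM1 promoter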
T3 sequence (O75030 whole entry): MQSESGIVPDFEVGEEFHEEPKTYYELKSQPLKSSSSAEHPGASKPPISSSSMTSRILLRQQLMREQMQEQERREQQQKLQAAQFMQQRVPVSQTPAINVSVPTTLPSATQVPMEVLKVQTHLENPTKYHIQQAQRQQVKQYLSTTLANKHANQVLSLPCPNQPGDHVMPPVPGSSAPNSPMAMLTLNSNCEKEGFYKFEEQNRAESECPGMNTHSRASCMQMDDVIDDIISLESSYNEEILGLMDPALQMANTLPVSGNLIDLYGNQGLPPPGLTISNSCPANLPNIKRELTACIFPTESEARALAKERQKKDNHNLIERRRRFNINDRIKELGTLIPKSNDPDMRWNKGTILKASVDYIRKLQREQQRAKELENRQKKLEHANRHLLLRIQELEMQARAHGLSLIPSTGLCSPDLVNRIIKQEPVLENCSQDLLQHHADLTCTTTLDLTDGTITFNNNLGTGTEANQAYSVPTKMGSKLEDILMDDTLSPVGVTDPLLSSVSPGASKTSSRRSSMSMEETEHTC

[16] = blockers of bursicon-stimulated LGR2 cAMP reporter – cell-based, HEK293, CRE-luciferase reporter, cherry pick, set 2, dose response (AID 743343); type: functional;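 also: transfected cells were stimulated with diluted bursicon conditioned medium after compound addition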
[17] = blockade of melanocortin 4 receptor signaling – cell-based, plate reader, cherry pick, counter-screen for LGR2 antagonist project, dose response (AID 743444); type: functional;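 also: transfected HEK 293 cells stimulated with alpha-MSH peptide; potency of inhibitors of the alpha-MSH evoked signal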
[18] = target: T4, Ubiquitin-conjugating enzyme E2 N (Homo sapiens, UniProt P61088); type: functional;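 also: Dose-response confirmation in a TR-FRET assay detecting UBC13-driven polyubiquitin chain formation, inhibition measured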
T4 sequence (P61088 whole entry): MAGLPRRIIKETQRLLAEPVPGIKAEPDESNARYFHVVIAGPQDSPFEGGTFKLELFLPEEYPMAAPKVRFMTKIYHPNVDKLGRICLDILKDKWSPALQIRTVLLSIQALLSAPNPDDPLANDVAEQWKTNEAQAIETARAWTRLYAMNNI

[19] = target: T5, DNA repair and recombination protein RAD54-like (Homo sapiens, UniProt Q92698); assay: RAD54 Holliday junction migration blockers – biochemical, fluorescence, cherry-picked samples, dose series, confirmation (AID 651657); type: functional
T5 sequence (Q92698 whole entry): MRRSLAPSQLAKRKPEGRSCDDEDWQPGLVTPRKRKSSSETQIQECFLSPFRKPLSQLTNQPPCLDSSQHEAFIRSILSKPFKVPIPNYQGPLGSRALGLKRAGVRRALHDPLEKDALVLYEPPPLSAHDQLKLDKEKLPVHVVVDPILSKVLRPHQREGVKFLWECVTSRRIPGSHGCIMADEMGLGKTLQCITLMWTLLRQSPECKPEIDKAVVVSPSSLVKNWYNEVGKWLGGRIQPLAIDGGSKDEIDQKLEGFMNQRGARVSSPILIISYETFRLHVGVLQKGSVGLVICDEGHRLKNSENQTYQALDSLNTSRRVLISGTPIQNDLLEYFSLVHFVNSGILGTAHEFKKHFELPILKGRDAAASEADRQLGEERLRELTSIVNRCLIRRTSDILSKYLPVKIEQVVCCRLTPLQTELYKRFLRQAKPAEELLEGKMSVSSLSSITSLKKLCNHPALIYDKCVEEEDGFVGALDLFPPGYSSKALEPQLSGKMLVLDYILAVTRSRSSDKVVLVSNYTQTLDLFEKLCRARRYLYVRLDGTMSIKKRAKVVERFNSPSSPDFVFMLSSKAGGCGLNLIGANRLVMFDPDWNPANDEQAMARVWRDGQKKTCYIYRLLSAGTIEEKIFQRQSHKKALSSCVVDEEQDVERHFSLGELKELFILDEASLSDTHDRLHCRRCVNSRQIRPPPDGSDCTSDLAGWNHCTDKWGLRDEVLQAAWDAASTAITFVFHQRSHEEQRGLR

[20] = target: T6, Polyadenylate-binding protein 1 (Homo sapiens, UniProt P11940); assay: MLLE binding blockers, Cy5 peptide tracer – biochemical, fluorescence polarization, Cy5-PAM2 peptide, secondary, miRNA deadenylation inhibitor project, dose response (AID 602260); type: functional; conditions: read-out: IC50_Mean
T6 sequence (P11940 whole entry): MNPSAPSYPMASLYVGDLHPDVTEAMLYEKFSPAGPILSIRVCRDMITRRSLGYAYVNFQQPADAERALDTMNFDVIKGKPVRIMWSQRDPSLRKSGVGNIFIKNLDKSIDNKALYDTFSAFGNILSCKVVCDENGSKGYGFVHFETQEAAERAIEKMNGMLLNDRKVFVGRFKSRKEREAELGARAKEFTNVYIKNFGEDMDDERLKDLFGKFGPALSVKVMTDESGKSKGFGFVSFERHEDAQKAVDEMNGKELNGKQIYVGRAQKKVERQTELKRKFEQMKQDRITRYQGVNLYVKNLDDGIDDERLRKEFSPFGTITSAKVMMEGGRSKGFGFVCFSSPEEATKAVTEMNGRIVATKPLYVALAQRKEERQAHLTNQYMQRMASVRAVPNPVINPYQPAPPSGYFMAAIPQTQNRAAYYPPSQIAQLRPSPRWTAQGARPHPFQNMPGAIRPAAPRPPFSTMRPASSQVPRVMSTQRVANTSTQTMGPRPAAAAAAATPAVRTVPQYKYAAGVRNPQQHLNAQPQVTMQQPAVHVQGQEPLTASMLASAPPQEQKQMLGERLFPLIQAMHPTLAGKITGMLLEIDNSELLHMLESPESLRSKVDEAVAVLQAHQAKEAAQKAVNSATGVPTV

[21] = target: T7, Mitochondrial peptide methionine sulfoxide reductase (Bos taurus, UniProt P54149); assay: Absorbance-based biochemical high throughput dose response assay for activators of Methionine sulfoxide reductase A (MsrA).; type: functional
T7 sequence (P54149 whole entry): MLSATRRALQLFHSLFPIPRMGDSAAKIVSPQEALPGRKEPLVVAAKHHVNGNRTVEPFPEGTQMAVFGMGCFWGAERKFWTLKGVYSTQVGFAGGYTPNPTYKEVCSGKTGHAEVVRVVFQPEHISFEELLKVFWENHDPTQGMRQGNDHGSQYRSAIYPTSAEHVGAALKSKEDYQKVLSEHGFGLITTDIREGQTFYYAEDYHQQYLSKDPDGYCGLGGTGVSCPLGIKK

[22] = target: T6, Polyadenylate-binding protein 1; assay: MLLE domain peptide-binding blockers, IC50 – biochemical, fluorescence polarization, FITC-PAM2 peptide, dose response (AID 602259); type: functional; conditions: read-out: IC50_Mean
[23] = viability of PTEN-deleted HCT116 cells – cell-based, HCT116 PTEN knockout, dose response (AID 1047); type: functional;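 also: HCT116 colon tumor cells with PTEN knocked out; cells exposed to compound for 60 hours before readout; potency for loss of cell viability measured by luminescence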
[24] = viability of HCT116 lacking mutant beta-catenin – cell-based, human colon tumor, dose response (AID 1045); type: functional;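 also: HCT116 colon tumor cells with beta catenin knocked out; cells exposed to compound for 60 hours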
Vero = assay: cells; type: functional; conditions: Chlorocebus sabaeus
[25] = luciferase reporter signal suppression in cells – H4 neuroglioma cells, luminescence, dose response (AID 1990); type: functional, cell-based
[26] = target: T1, Heat shock factor protein 1; assay: decrease of HSF1-responsive luciferase luminescence – cell-based, NIH3T3, dose retest, confirmation (AID 2382); type: functional;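 also: NIH3T3 fibroblasts with HSF1-driven luciferase reporter stressed by proteasome inhibitor MG132; luminescence from HSF1-driven luciferase expression after 8 hours of MG132 stress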
[27] = viability of uninfected HEp-2 cells – cell-based, HTS, cytotoxicity control for RSV inhibitor project, dose response (AID 2410); type: functional; conditions: human respiratory syncytial virus

CCOC(=O)c1cc(-c2cc(OC)c(OC)c(OC)c2)nc2c1c(=O)[nH]c(=O)n2Cc1ccccc1
AC50 [1]: > 30 µM (inactive)

Cc1ccccc1/N=C1\SC(CC(=O)Nc2ccc3ccccc3c2)C(=O)N1Cc1ccccn1 (stereo unspecified)
AC50 [2]: 4.16 µM (active) | EC50 [3]: > 120 µM (inactive) | IC50 [4]: 12.5 µM (inactive) | IC50 [5]: > 69.5 µM (inactive)

Oc1ccc(C[C@H]2CNC(=S)N2C[C@H]2CCCN2C[C@H](Cc2ccccc2)N2C[C@H](Cc3ccc(O)cc3)N(CCc3ccccc3)C2=S)cc1
IC50 [4]: 15.1 µM (inactive) | IC50 [5]: > 69.5 µM (inactive)

CC(=O)N1c2ccc(S(=O)(=O)NCCC(=O)NC3CCC(C)CC3)cc2CC1C (stereo unspecified)
AC50 [1]: > 30 µM (inactive)

CCCN(CC1CC1)C(=O)COC(=O)c1ccc2c(c1)C(=O)N(c1ccc(OCC)cc1)C2=O
IC50 [6]: > 100 µM (active)

CNC(=O)CSc1nnc(-c2ccco2)n1-c1cccc(C)c1
AC50 [1]: > 30 µM (inactive)

COc1ccc(CCCNC(=O)C2CCC(=O)N(Cc3ccc(Cl)cc3)C2)cc1 (stereo unspecified)
AC50 [1]: > 30 µM (inactive)

O=C(c1cc(S(=O)(=O)N2CCN(c3ccccc3)CC2)ccc1Cl)N1CCCCCCC1
IC50 [7]: 5.5 µM (active)

O=C(c1ccc(CSc2nc3cc[nH]cc-3n2)cc1)N1CCN(c2cccc(Cl)c2)CC1
EC50 [8]: 1.39 µM (active) | EC50 [9]: > 60 µM (not active) | AC50 [10]: 38 µM (active) | AC50 [11]: 32.6 µM (active) | AC50 [12]: 50.4 µM (active)

COc1cccc(NC(=O)c2ccc(-c3ccc([N+](=O)[O-])cc3)o2)c1
EC50 [13]: > 99 µM (inactive) | EC50 [14]: > 99 µM (inactive)

COc1ccc(-c2cc(C)no2)cc1S(=O)(=O)N1CCOc2ccc(C)cc21
EC50 [13]: > 99 µM (inactive) | EC50 [14]: > 99 µM (inactive)

CCc1ccc(NC(=O)CSc2nnc(-c3ccccn3)n2C)cc1
IC50 [6]: > 100 µM (active)

CC(O)(c1ccccc1)c1nc(-c2cc3ccccc3o2)cs1 (stereo unspecified)
IC50 [4]: 17.2 µM (inactive) | IC50 [5]: > 69.5 µM (inactive)

O=S(=O)(CC(CN1CCCCC1)N1CCCCC1)c1ccc2ccccc2c1 (stereo unspecified)
EC50 [8]: 2.65 µM (active) | EC50 [9]: > 60 µM (not active) | EC50 [3]: 13.9 µM (active) | AC50 [15]: 12.5 µM (active) | AC50 [10]: 11.6 µM (active) | AC50 [11]: 14.6 µM (active) | AC50 [16]: 22.3 µM (active) | AC50 [17]: 14 µM (active) | AC50 [12]: 18.8 µM (active)

CCOC(=O)C1=C(C)N=c2s/c(=C/c3ccccc3)c(=O)n2C1c1ccc(OC)c(OC)c1 (stereo unspecified)
EC50 [13]: > 99 µM (inactive) | EC50 [14]: > 99 µM (inactive)

CCCCN(CC)CCCNC(=O)c1cc2c(=O)n(C)c3ccccc3c2n1C
IC50 [18]: > 20 µM (inactive) | AC50 [19]: 22.2 µM (active)

COCc1cc(=O)[nH]c(=S)[nH]1
IC50 [20]: > 66 µM (inactive) | EC50 [21]: > 104 µM (inactive) | IC50 [22]: > 66 µM (inactive)

Cc1ccc(-c2nc(N(C)C3CCN(C)CC3)c3ccccc3n2)cc1
EC50 [23]: 6.77 µM (active) | EC50 [24]: 6.51 µM (active) | CC50 (Vero): 16.3 µM (active) | AC50 [19]: 3.93 µM (active)

CCCCC(=O)NNC(=S)NC(=O)c1ccc([N+](=O)[O-])cc1
EC50 [21]: > 104 µM (inactive)

Cc1cc(C(=O)CSc2nnc3ccccn23)c(C)n1-c1ccccc1
EC50 [25]: 0.844 µM (active) | EC50 [26]: < 0.16 µM (active) | AC50 [15]: 2.08 µM (active) | IC50 [7]: 14.4 µM (inactive) | AC50 [10]: > 52 µM (inactive) | AC50 [16]: 1.06 µM (active) | AC50 [17]: 1.39 µM (active)

COc1ccc(/C=C/C(=O)c2ccc(C)c([N+](=O)[O-])c2)cc1O
CC50 [27]: 15.8 µM (active) | IC50 [6]: > 100 µM (active) | EC50 [23]: 5.39 µM (active) | EC50 [24]: 4.65 µM (active)
